{"source": "patent US20250100997A1", "about": "“PYRIDAZINYL AMINO DERIVATIVES AS ALK5 INHIBITORS” (CHIESI FARMACEUTICI S.P.A., priority 2022, published 2025)"}
{"target": "T1, human ALK5 (recombinant TGF β1 N-term GST-tagged, 80-end) (Homo sapiens, UniProt P36897)", "T1 construct": "human ALK5 (recombinant TGF β1 N-term GST-tagged, 80-end); GST (N); purchased", "T1 sequence (P36897 80-503 limits assumed)": "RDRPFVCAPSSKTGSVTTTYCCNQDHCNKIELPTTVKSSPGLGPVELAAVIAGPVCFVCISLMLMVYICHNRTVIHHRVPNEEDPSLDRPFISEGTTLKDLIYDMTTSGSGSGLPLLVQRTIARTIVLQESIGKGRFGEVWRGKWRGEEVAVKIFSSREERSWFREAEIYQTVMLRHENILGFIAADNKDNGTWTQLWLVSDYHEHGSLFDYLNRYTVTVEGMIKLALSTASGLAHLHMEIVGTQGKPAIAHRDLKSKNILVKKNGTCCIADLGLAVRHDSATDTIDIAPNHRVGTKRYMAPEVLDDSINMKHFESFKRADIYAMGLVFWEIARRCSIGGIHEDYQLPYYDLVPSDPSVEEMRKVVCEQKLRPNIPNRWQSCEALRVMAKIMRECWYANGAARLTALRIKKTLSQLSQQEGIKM", "assay": "ADP-GLO kinase assay, biochemical ALK5 assay", "details": "pIC50 converted to pKi using the Cheng-Prusoff equation, ATP at Km, or high ATP (30-fold Km) for very potent compounds, 25° C.", "description": "The enzymatic activity of compounds of the present invention was monitored measuring the formation of ADP using the ADP-GLO Kinases assay. Following the incubation of the purified enzyme, a substrate and ATP, the produced ADP was converted into ATP, which in turn was converted into light by Ultra-Glo Luciferase. The luminescent signal positively correlated with ADP amount and kinase activity. Briefly, the kinase reaction was performed by incubating 2.6 nM of the purified, commercially available human ALK5 (recombinant TGF β1 N-term GST-tagged, 80-end), a final concentration of TGFβ1 peptide 94.5 μM (Promega, T36-58) and ultra-pure ATP (Promega V915B). The ATP concentration was set at the Km value (concentration of substrate which permits the enzyme to achieve half maximal velocity (Vmax)) of ALK5 (0.5 μM). Compound and ALK5 kinase were mixed and incubated for 15 mins. Reactions were initiated by addition of ATP at a final concentration in the assay of […]. After an incubation of 120 min, the reaction was stopped, and ADP production detected with ADP-Glo kit according to manufacturer's indications. To overcome the assay wall limit for very potent compounds the assay protocol was changed by using a high ATP concentration (30-fold Km). Compounds and ALK5 kinase were mixed for 15 min and the reaction initiated by addition of TGFβ1 peptide and ATP at a final concentration in the assay of 15 μM. After an incubation of 60 min, the kinase reaction was stopped, and ADP production detected with ADP-Glo kit according to manufacturer's indications.\nAll reaction and incubation steps were performed at 25° C. and the assays were performed in 384-well format and validated using a selection of reference compounds tested in 11-point concentration-response curve.\nResults were expressed as pIC50 (negative logarithm of IC50) and subsequently converted to pKi (negative logarithm of […]) using the Cheng-Prusoff equation. The higher the value of pKi, the greater the inhibition of ALK5 activity.", "units": {"Ki": "nM"}}
{"smiles": "CN1CCN(CCC(=O)Nc2cc(Nc3cc(-c4cc(Cl)ccc4F)nnc3C3=CCN(C(=O)OC(C)(C)C)CC3)ccn2)CC1", "note": "[Example 1, tert-butyl 4-[6-(5-chloro-2-fluorophenyl)-4-({2-[3-(4-methylpiperazin-1-yl)propanamido]pyridin-4-yl}amino)pyridazin-3-yl]-1,2,3,6-tetrahydropyridine-1-carboxylate]", "Ki": "1 to 3.16"}
{"smiles": "CN1CCN(CCC(=O)Nc2cc(Nc3cc(-c4cc(Cl)ccc4F)nnc3C3CCN(C(=O)OC(C)(C)C)CC3)ccn2)CC1", "note": "[Example 2, tert-butyl 4-[6-(5-chloro-2-fluorophenyl)-4-({2-[3-(4-methylpiperazin-1-yl)propanamido]pyridin-4-yl}amino)pyridazin-3-yl]piperidine-1-carboxylate]", "Ki": "1 to 3.16"}
{"smiles": "CN1CCN(CCC(=O)Nc2cc(Nc3cc(-c4cc(Cl)ccc4F)nnc3C3=CCNCC3)ccn2)CC1", "note": "[Example 3, N-(4-{[6-(5-chloro-2-fluorophenyl)-3-(1,2,3,6-tetrahydropyridin-4-yl)pyridazin-4-yl]amino}pyridin-2-yl)-3-(4-methylpiperazin-1-yl)propanamide]", "Ki": "1 to 3.16"}
{"smiles": "CN1CCN(CCC(=O)Nc2cc(Nc3cc(-c4cc(Cl)ccc4F)nnc3C3CCNCC3)ccn2)CC1", "note": "[Example 4, N-(4-{[6-(5-chloro-2-fluorophenyl)-3-(piperidin-4-yl)pyridazin-4-yl]amino}pyridin-2-yl)-3-(4-methylpiperazin-1-yl)propanamide]", "Ki": "0.126 to 0.794"}
{"smiles": "COC(=O)N1CC=C(c2nnc(-c3cc(Cl)ccc3F)cc2Nc2ccnc(NC(=O)CCN3CCN(C)CC3)c2)CC1", "note": "[Example 5, methyl 4-[6-(5-chloro-2-fluorophenyl)-4-({2-[3-(4-methylpiperazin-1-yl)propanamido]pyridin-4-yl}amino)pyridazin-3-yl]-1,2,3,6-tetrahydropyridine-1-carboxylate]", "Ki": "1 to 3.16"}
{"smiles": "CN1CC=C(c2nnc(-c3cc(Cl)ccc3F)cc2Nc2ccnc(NC(=O)CCN3CCN(C)CC3)c2)CC1", "note": "[Example 6, N-(4-{[6-(5-chloro-2-fluorophenyl)-3-(1-methyl-1,2,3,6-tetrahydropyridin-4-yl)pyridazin-4-yl]amino}pyridin-2-yl)-3-(4-methylpiperazin-1-yl)propanamide]", "Ki": "1 to 3.16"}
{"smiles": "COC(=O)N1CCC(c2nnc(-c3cc(Cl)ccc3F)cc2Nc2ccnc(NC(=O)CCN3CCN(C)CC3)c2)CC1", "note": "[Example 7, methyl 4-[6-(5-chloro-2-fluorophenyl)-4-({2-[3-(4-methylpiperazin-1-yl)propanamido]pyridin-4-yl}amino)pyridazin-3-yl]piperidine-1-carboxylate]", "Ki": "0.126 to 0.794"}
{"smiles": "CN1CCC(c2nnc(-c3cc(Cl)ccc3F)cc2Nc2ccnc(NC(=O)CCN3CCN(C)CC3)c2)CC1", "note": "[Example 8, N-(4-{[6-(5-chloro-2-fluorophenyl)-3-(1-methylpiperidin-4-yl)pyridazin-4-yl]amino}pyridin-2-yl)-3-(4-methylpiperazin-1-yl)propanamide]", "Ki": "1 to 3.16"}
{"smiles": "CN1CCN(CCC(=O)Nc2cc(Nc3cc(-c4cc(Cl)ccc4F)nnc3C3CN(C(=O)OC(C)(C)C)C3)ccn2)CC1", "note": "[Example 9, tert-butyl 3-[6-(5-chloro-2-fluorophenyl)-4-({2-[3-(4-methylpiperazin-1-yl)propanamido]pyridin-4-yl}amino)pyridazin-3-yl]azetidine-1-carboxylate]", "Ki": "0.126 to 0.794"}
{"smiles": "CN1CCN(CCC(=O)Nc2cc(Nc3cc(-c4cc(Cl)ccc4F)nnc3C3CNC3)ccn2)CC1", "note": "[Example 10, N-(4-{[3-(azetidin-3-yl)-6-(5-chloro-2-fluorophenyl)pyridazin-4-yl]amino}pyridin-2-yl)-3-(4-methylpiperazin-1-yl)propanamide]", "Ki": "0.126 to 0.794"}
{"smiles": "CN1CCN(CCC(=O)Nc2cc(Nc3cc(-c4cc(Cl)ccc4F)nnc3C3=CCCN(C(=O)OC(C)(C)C)C3)ccn2)CC1", "note": "[Example 11, tert-butyl 5-[6-(5-chloro-2-fluorophenyl)-4-({2-[3-(4-methylpiperazin-1-yl)propanamido]pyridin-4-yl}amino)pyridazin-3-yl]-1,2,3,6-tetrahydropyridine-1-carboxylate]", "Ki": "0.126 to 0.794"}
{"smiles": "CN1CCN(CCC(=O)Nc2cc(Nc3cc(-c4cc(Cl)ccc4F)nnc3C3=CCCNC3)ccn2)CC1", "note": "[Example 12, N-(4-{[6-(5-chloro-2-fluorophenyl)-3-(1,2,5,6-tetrahydropyridin-3-yl)pyridazin-4-yl]amino}pyridin-2-yl)-3-(4-methylpiperazin-1-yl)propanamide]", "Ki": "1 to 3.16"}
{"smiles": "CN1CCN(CCC(=O)Nc2cc(Nc3cc(-c4cc(Cl)ccc4F)nnc3C3=CCCN(C)C3)ccn2)CC1", "note": "[Example 13, N-(4-{[6-(5-chloro-2-fluorophenyl)-3-(1-methyl-1,2,5,6-tetrahydropyridin-3-yl)pyridazin-4-yl]amino}pyridin-2-yl)-3-(4-methylpiperazin-1-yl)propanamide]", "Ki": "1 to 3.16"}
{"smiles": "CC(=O)N1CCC=C(c2nnc(-c3cc(Cl)ccc3F)cc2Nc2ccnc(NC(=O)CCN3CCN(C)CC3)c2)C1", "note": "[Example 14, N-(4-{[3-(1-acetyl-1,2,5,6-tetrahydropyridin-3-yl)-6-(5-chloro-2-fluorophenyl)pyridazin-4-yl]amino}pyridin-2-yl)-3-(4-methylpiperazin-1-yl)propanamide]", "Ki": "1 to 3.16"}
{"smiles": "CN1CCN(CCC(=O)Nc2cc(Nc3cc(-c4cc(Cl)ccc4F)nnc3C3CCN3C(=O)OC(C)(C)C)ccn2)CC1", "note": "(centres unmarked) [Example 15, tert-butyl 2-[6-(5-chloro-2-fluorophenyl)-4-({2-[3-(4-methylpiperazin-1-yl)propanamido]pyridin-4-yl}amino)pyridazin-3-yl]azetidine-1-carboxylate]", "Ki": "0.126 to 0.794"}
{"smiles": "CN1CCN(CCC(=O)Nc2cc(Nc3cc(-c4cc(Cl)ccc4F)nnc3C3CCN3)ccn2)CC1", "note": "(centres unmarked) [Example 16, N-(4-{[3-(azetidin-2-yl)-6-(5-chloro-2-fluorophenyl)pyridazin-4-yl]amino}pyridin-2-yl)-3-(4-methylpiperazin-1-yl)propanamide]", "Ki": "0.126 to 0.794"}
{"smiles": "CN1CCN(CCC(=O)Nc2cc(Nc3cc(-c4cc(Cl)ccc4F)nnc3C3CCC(=O)N3C)ccn2)CC1", "note": "(centres unmarked) [Example 17, N-(4-((6-(5-chloro-2-fluorophenyl)-3-(1-methyl-5-oxopyrrolidin-2-yl)pyridazin-4-yl)amino)pyridin-2-yl)-3-(4-methylpiperazin-1-yl)propanamide]", "Ki": "1 to 3.16"}
{"smiles": "CN1CCN(CCC(=O)Nc2cc(Nc3cc(-c4cc(Cl)ccc4F)nnc3C3CCO3)ccn2)CC1", "note": "(centres unmarked) [Example 18, N-(4-{[6-(5-chloro-2-fluorophenyl)-3-(oxetan-2-yl)pyridazin-4-yl]amino}pyridin-2-yl)-3-(4-methylpiperazin-1-yl)propanamide]", "Ki": "0.126 to 0.794"}
{"smiles": "CN1CCN(CCC(=O)Nc2cc(Nc3cc(-c4cc(Cl)ccc4F)nnc3C3CCC(=O)S3)ccn2)CC1", "note": "(centres unmarked) [Example 19, N-(4-((6-(5-chloro-2-fluorophenyl)-3-(5-oxotetrahydrothiophen-2-yl)pyridazin-4-yl)amino)pyridin-2-yl)-3-(4-methylpiperazin-1-yl)propanamide]", "Ki": "0.126 to 0.794"}
{"smiles": "CN1CCN(CCC(=O)Nc2cc(Nc3cc(-c4cc(Cl)ccc4F)nnc3C3COC(C)(C)N3C(=O)OC(C)(C)C)ccn2)CC1", "note": "(centres unmarked) [Example 20, tert-butyl 4-(6-(5-chloro-2-fluorophenyl)-4-((2-(3-(4-methylpiperazin-1-yl)propanamido)pyridin-4-yl)amino)pyridazin-3-yl)-2,2-dimethyloxazolidine-3-carboxylate]", "Ki": "0.126 to 0.794"}
